What follows are molecules tested against T1, human TLR9 (Homo sapiens, UniProt Q9NR96) (assay: HEK293-Blue-hTLR-9 cells assay). Conditions: HEK293-Blue-hTLR9 cells, ODN2006 stimulation, 20 hrs, SEAP reporter; read-out: HEK/hTLR9 IC50.
T1 construct: host or cells: HEK293 (HEK-Blue hTLR9)
T1 sequence (Q9NR96 26-1032): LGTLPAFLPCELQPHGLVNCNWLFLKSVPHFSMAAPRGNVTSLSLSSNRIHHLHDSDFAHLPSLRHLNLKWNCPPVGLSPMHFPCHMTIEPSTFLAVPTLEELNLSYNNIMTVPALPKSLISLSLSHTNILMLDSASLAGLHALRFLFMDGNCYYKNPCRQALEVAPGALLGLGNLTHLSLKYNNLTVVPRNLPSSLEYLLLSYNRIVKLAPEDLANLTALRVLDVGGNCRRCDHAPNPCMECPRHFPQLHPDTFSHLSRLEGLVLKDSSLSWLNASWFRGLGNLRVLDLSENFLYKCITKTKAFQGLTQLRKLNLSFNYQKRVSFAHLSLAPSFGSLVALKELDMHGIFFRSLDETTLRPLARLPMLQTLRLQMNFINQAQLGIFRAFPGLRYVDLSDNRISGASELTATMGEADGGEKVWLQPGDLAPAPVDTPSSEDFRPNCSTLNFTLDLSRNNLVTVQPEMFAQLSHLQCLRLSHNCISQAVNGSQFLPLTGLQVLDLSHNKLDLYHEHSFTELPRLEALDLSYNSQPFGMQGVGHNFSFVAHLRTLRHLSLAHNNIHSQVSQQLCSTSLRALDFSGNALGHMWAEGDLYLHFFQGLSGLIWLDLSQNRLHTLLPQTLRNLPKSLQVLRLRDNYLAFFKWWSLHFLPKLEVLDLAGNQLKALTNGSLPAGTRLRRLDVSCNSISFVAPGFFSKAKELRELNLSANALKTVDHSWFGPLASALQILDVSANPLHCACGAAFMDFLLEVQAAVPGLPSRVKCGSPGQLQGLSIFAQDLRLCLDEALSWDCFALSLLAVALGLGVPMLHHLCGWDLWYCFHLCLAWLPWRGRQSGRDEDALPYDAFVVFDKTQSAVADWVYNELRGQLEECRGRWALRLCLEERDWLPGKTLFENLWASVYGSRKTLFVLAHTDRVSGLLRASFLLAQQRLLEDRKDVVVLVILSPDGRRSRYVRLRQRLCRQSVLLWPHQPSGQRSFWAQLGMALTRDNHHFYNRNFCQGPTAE
Assay type: cell-based
Description: HEK293-Blue-hTLR-9 Cells Assay:
A stable HEK293-Blue-hTLR-9 cell line was purchased from InvivoGen (Cat. #: hkb-htlr9, San Diego, Calif., USA). These cells were originally designed for studying the stimulation of human TLR9 by monitoring the activation of NF-κB. A SEAP (secreted embryonic alkaline phosphatase) reporter gene was placed under the control of the IFN-β minimal promoter fused to five NF-κB and AP-1-binding sites. The SEAP was induced by activating NF-κB and AP-1 via stimulating HEK-Blue hTLR9 cells with TLR9 ligands. Therefore the reporter expression was declined by TLR9 antagonist under the stimulation of a ligand, such as ODN2006 (Cat. #: tlrl-2006-1, Invivogen, San Diego, Calif., USA), for incubation of 20 hrs. The cell culture supernatant SEAP reporter activity was determined using QUANTI-Blue^TM kit (Cat. #: rep-qbl, Invivogen, San Diego, Calif., USA) at a wavelength of 640 nm, a detection medium that turns purple or blue in the presence of alkaline phosphatase.
HEK293-Blue-hTLR9 cells were incubated at a density of 250,000˜450,000 cells/mL in a volume of 170 μL in a 96-well plate in Dulbecco's Modified Eagle's medium (DMEM) containing 4.5 g/L glucose, 50 U/mL penicillin, […] streptomycin, […] Normocin, 2 mM L-glutamine, 10% (v/v) heat-inactivated fetal bovine serum with addition of 20 μL test compound in a serial dilution in the presence of final DMSO at 1% and 10 μL of 20 uM ODN2006 in above DMEM, perform incubation under 37° C. in a CO2 incubator for 20 hrs. Then 20 μL of the supernatant from each well was incubated with 180 μL Quanti-blue substrate solution at 37° C. for 2 h and the absorbance was read at 620-655 nm using a spectrophotometer. The signaling pathway that TLR9 activation leads to downstream NF-κB activation has been widely accepted, and therefore similar reporter assay was modified for evaluating TLR9 antagonist.

Compound | IC50
[2H]c1ccc2c(N3C[C@@H](C)N4Cc5nc(N6CC[C@H]7CNC[C@H]76)ccc5[C@H]4C3)ccc(C#N)c2n1 [Example 10, 5-[(2S,6R)-11-[(3aS,6aS)-3,3a,4,5,6,6a-hexahydro-2H-pyrrolo[2,3-c]pyrrol-1-yl]-6-methyl-4,7,10-triazatricyclo[7.4.0.02,7]trideca-1(9),10,12-trien-4-yl]-2-deuterio-quinoline-8-carbonitrile] | 186 nM
[2H]c1ccc2c(N3C[C@@H](C)N4Cc5nc(N6CC[C@H](N)[C@@H](OC)C6)ccc5[C@H]4C3)ccc(C#N)c2n1 [Example 12, 5-[(2S,6R)-11-[(3S,4S)-4-amino-3-methoxy-1-piperidyl]-6-methyl-4,7,10-triazatricyclo[7.4.0.02,7]trideca-1(9),10,12-trien-4-yl]-2-deuterio-quinoline-8-carbonitrile] | 305 nM
[2H]c1ccc2c(N3C[C@@H](C)N4Cc5nc(N6C[C@@H]7C[C@H]6CN7)ccc5[C@H]4C3)ccc(C#N)c2n1 [Example 16, 2-Deuterio-5-[(2S,6R)-11-[(1S,4S)-2,5-diazabicyclo[2.2.1]heptan-2-yl]-6-methyl-4,7,10-triazatricyclo[7.4.0.02,7]trideca-1(9),10,12-trien-4-yl]quinoline-8-carbonitrile] | 121 nM
[2H]c1ccc2c(N3C[C@@H](C)N4Cc5nc(N6CC[C@](C)(N)C6)ccc5[C@H]4C3)ccc(C#N)c2n1 [Example 8, 5-[(2S,6R)-11-[(3S)-3-amino-3-methyl-pyrrolidin-1-yl]-6-methyl-4,7,10-triazatricyclo[7.4.0.02,7]trideca-1(9),10,12-trien-4-yl]-2-deuterio-quinoline-8-carbonitrile] | 139 nM
[2H]c1ccc2c(N3C[C@@H](C)N4Cc5nc(N6CC[C@@H](OC)[C@H](N)C6)ccc5[C@H]4C3)ccc(C#N)c2n1 [Example 15, 5-[(2S,6R)-11-[(3R,4R)-3-amino-4-methoxy-1-piperidyl]-6-methyl-4,7,10-triazatricyclo[7.4.0.02,7]trideca-1(9),10,12-trien-4-yl]-2-deuterio-quinoline-8-carbonitrile] | 212 nM
N#Cc1ccc(N2CCN3Cc4nc(N5CCNCC5)ccc4[C@@H]3C2)c2cccnc12 [Example 3A, 5-[(2R)-11-piperazin-1-yl-4,7,10-triazatricyclo[7.4.0.02,7]trideca-1(9),10,12-trien-4-yl]quinoline-8-carbonitrile] | 142 nM
[2H]c1ccc2c(N3C[C@@H](C)N4Cc5nc(N6C[C@H]7C[C@@H]6CN7)ccc5[C@H]4C3)ccc(C#N)c2n1 [Example 17, 2-Deuterio-5-[(2S,6R)-11-[(1R,4R)-2,5-diazabicyclo[2.2.1]heptan-2-yl]-6-methyl-4,7,10-triazatricyclo[7.4.0.02,7]trideca-1(9),10,12-trien-4-yl]quinoline-8-carbonitrile] | 53.4 nM
CC1(N)CCN(c2ccc3c(n2)CN2CCN(c4ccc(C#N)c5ncccc45)C[C@@H]32)CC1 [Example 4A, 5-[(2R)-11-(4-amino-4-methyl-1-piperidyl)-4,7,10-triazatricyclo[7.4.0.02,7]trideca-1(9),10,12-trien-4-yl]quinoline-8-carbonitrile] | 56.6 nM
[2H]c1ccc2c(N3C[C@@H](C)N4Cc5nc(N6CCC7(CNC7)C6)ccc5[C@H]4C3)ccc(C#N)c2n1 [Example 9, 2-Deuterio-5-[(2S,6R)-11-(2,6-diazaspiro[3.4]octan-6-yl)-6-methyl-4,7,10-triazatricyclo[7.4.0.02,7]trideca-1(9),10,12-trien-4-yl]quinoline-8-carbonitrile] | 106 nM
[2H]c1ccc2c(N3C[C@@H](C)N4Cc5nc(N6CC[C@H](N)[C@H](OC)C6)ccc5[C@H]4C3)ccc(C#N)c2n1 [Example 13, 5-[(2S,6R)-11-[(3R,4S)-4-amino-3-methoxy-1-piperidyl]-6-methyl-4,7,10-triazatricyclo[7.4.0.02,7]trideca-1(9),10,12-trien-4-yl]-2-deuterio-quinoline-8-carbonitrile] | 289 nM

The remaining lines, values ahead:

IC50 | Compound
177 nM | C[C@@H]1CN(c2ccc(C#N)n3nccc23)C[C@@H]2c3ccc(N4C[C@@H]5C[C@H]4CN5)nc3CN12 [Example 21, 4-[(2S,6R)-11-[(1S,4S)-2,5-diazabicyclo[2.2.1]heptan-2-yl]-6-methyl-4,7,10-triazatricyclo[7.4.0.02,7]trideca-1(9),10,12-trien-4-yl]pyrazolo[1,5-a]pyridine-7-carbonitrile]
449 nM | C[C@@H]1CN(c2ccc(C#N)c3ncccc23)C[C@@H]2c3cnc(N4CCNCC4)cc3CN12 [Example 2, 5-[(2S,6R)-6-methyl-11-piperazin-1-yl-4,7,12-triazatricyclo[7.4.0.02,7]trideca-1(9),10,12-trien-4-yl] quinoline-8-carbonitrile]
252 nM | C[C@@H]1CN(c2ccc(C#N)c3ncccc23)C[C@@H]2c3ccc(N4CCNCC4)nc3CN12 [Example 5, 5-[(2S,6R)-6-methyl-11-piperazin-1-yl-4,7,10-triazatricyclo[7.4.0.02,7]trideca-1(9),10,12-trien-4-yl]quinoline-8-carbonitrile]
274 nM | [2H]c1ccc2c(N3C[C@@H](C)N4Cc5nc(O[C@H]6CCNC6)ccc5[C@H]4C3)ccc(C#N)c2n1 [Example 25, 2-Deuterio-5-[(2S,6R)-6-methyl-11-[(3S)-pyrrolidin-3-yl]oxy-4,7,10-triazatricyclo[7.4.0.02,7]trideca-1(9),10,12-trien-4-yl]quinoline-8-carbonitrile]
206 nM | C[C@@H]1CN(c2ccc(C#N)c3ncccc23)C[C@@H]2c3ccc(N4CCCNCC4)nc3CN12 [Example 20, 5-[(2S,6R)-11-(1,4-diazepan-1-yl)-6-methyl-4,7,10-triazatricyclo[7.4.0.02,7]trideca-1(9),10,12-trien-4-yl]quinoline-8-carbonitrile]
202 nM | [2H]c1ccc2c(N3C[C@@H](C)N4Cc5nc(N6CC[C@@H](N)[C@H](OC)C6)ccc5[C@H]4C3)ccc(C#N)c2n1 [Example 11, 5-[(2S,6R)-11-[(3R,4R)-4-amino-3-methoxy-1-piperidyl]-6-methyl-4,7,10-triazatricyclo[7.4.0.02,7]trideca-1(9),10,12-trien-4-yl]-2-deuterio-quinoline-8-carbonitrile]
262 nM | [2H]c1ccc2c(N3C[C@@H](C)N4Cc5nc(N6CCC7(CC6)CNCCO7)ccc5[C@H]4C3)ccc(C#N)c2n1 [Example 18, 2-Deuterio-5-[(2S,6R)-6-methyl-11-(1-oxa-4,9-diazaspiro[5.5]undecan-9-yl)-4,7,10-triazatricyclo[7.4.0.02,7]trideca-1(9),10,12-trien-4-yl]quinoline-8-carbonitrile]
316 nM | [2H]c1ccc2c(N3C[C@@H](C)N4Cc5nc(N6CC[C@H](OC)[C@@H](N)C6)ccc5[C@H]4C3)ccc(C#N)c2n1 [Example 14, 5-[(2S,6R)-11-[(3S,4S)-3-amino-4-methoxy-1-piperidyl]-6-methyl-4,7,10-triazatricyclo[7.4.0.02,7]trideca-1(9),10,12-trien-4-yl]-2-deuterio-quinoline-8-carbonitrile]

Reference: patent US12503471B2, “Triazatricycle compounds for the treatment of autoimmune disease” (Hoffmann-La Roche Inc., priority 2019, dated 2025)
